According to patent US20220204510A1, “2,3-DIHYDRO-1H-PYRROLIZINE-7-FORMAMIDE DERIVATIVE AND APPLICATION THEREOF” (CHIA TAI TIANQING PHARMACEUTICAL GROUP CO., LTD., priority 2018, published 2022):

Columns and labels:
[1] = system: hepatitis B virus; assay: In vivo efficacy in the HDI/HBV mouse model; conditions: HDI/HBV mice
Description: Experimental objective: to assay the efficacy of the compound against hepatitis B virus in mice through the HDI/HBV mouse model.
Preparation of compound: the solvent was an aqueous solution containing 10% polyethylene glycol-15 hydroxystearate; a certain amount of the test compounds 18 and 25 were separately dissolved in an aqueous solution containing 10% polyethylene glycol-15 hydroxystearate, and the mixtures were vortexed and sonicated to prepare uniform suspensions. The suspensions were stored at 4° C. for later use.
High pressure injection of the HBV plasmid DNA solution via the tail vein of mice: the day of plasmid injection was day 0, the day after injection was day 1, and so on. On day 0, all mice were injected with normal saline containing 10 μg of plasmid DNA via their tail veins at a dose of 8% of body weight, and the injection was completed within 5 s.
Administration: all mice were administered intragastrically twice a day (8/16 h interval) on day 1-6 and once on day 7. All mice were euthanized in the afternoon on day 7. The body weight of the mice, which was monitored every day, remained stable throughout the experiment.
Sample collection: blood was collected from the submandibular vein 4 h after the first administration in the morning on days 1, 3, and 5. All blood samples were collected in K2-EDTA anticoagulation tubes, and centrifuged for 10 min at 4° C., 7000 g to prepare about 40 μL of plasma. All mice were euthanized by CO2 four hours after administration in the morning on day 7. Blood was collected from the heart, and the plasma preparation method was the same as above. Two liver tissues were collected with 70-100 mg each, and quick-frozen by liquid nitrogen. After all samples were collected, they were stored in a −80° C. refrigerator for HBV DNA content detection.
Sample analysis: all plasma samples and liver samples were detected for HBV DNA by qPCR.

[2] = Metabolic stability in liver microsomes; format: in vitro ADME, human; conditions: for half-life at 1 μM: Human liver microsomes, 1 μM compound, 0.5 mg/mL; for CLint scaled at 1 μM / microsomal CLint at 1 μM: human liver microsomes; for microsomal CLint at 1 μM: read-out: CLint(mic)
Procedure: Experimental objective: to evaluate the metabolic stability of the test compound in CD-1 mice and human liver microsomes
Experimental procedures: first, the test compound (10 mM) was subjected to a two-step dilution, where the compound was diluted to an intermediate concentration of 100 μM with 100% methanol, and the working solution was diluted to 10 μM with a potassium phosphate buffer; eight 96-well incubation plates were prepared, and named T0, T5, T10, T20, T30, T60, Blank and NCF60, respectively; the reaction time points corresponding to the first 6 incubation plates were 0, 5, 10, 20, 30 and 60 min, respectively; for the Blank plate, neither the test compound nor a control compound was added, and for the NCF60 plate, potassium phosphate buffer was used in an incubation of 60 min in place of a NADPH regeneration system solution; 10 μL of the test compound working solution and 80 μL of the microsome working solution (liver microsome protein concentration was 0.625 mg/mL) were added to the T0, T5, T10, T20, T30, T60 and NCF60 plates, while only the microsome working solution was added to the Blank plate, and all the incubation plates were then placed in a 37° C. water bath for pre-incubation for about 10 min; after the pre-incubation, 10 μL of a NADPH regeneration system working solution was added into each sample well of all the plates except the NCF60 plate and T0 plate to start the reaction, and 10 μL of potassium phosphate buffer was added to each well of the NCF60 plate; therefore, in the test compound or control compound samples, the final reaction concentrations of the compound, testosterone, diclofenac and propafenone were 1 μM, the concentration of the liver microsomes was 0.5 mg/mL, and the final concentrations of DMSO and acetonitrile in the reaction system were 0.01% (v/v) and 0.99% (v/v), respectively; after incubation for an appropriate time (such as 5, 10, 20, 30, and 60 min), 300 μL of a stop solution (acetonitrile solution containing 100 ng/mL tolbutamide and 100 ng/mL labetalol) was added to each sample well to stop the reaction; 300 μL of the stop solution and then 10 μL of the NADPH working solution were added to the T0 plate, all the sample plates were shaken and centrifuged in a centrifuge (3220×g) for 20 min, and then 100 μL of supernatant was taken from each well and diluted with 300 μL of pure water for liquid chromatography-tandem mass spectrometry analysis.

[3] = target: hERG potassium channel (Homo sapiens, UniProt Q12809); assay: Inhibition test of the hERG potassium channel (automatic patch clamp, CHO-hERG cells); format: cell-based; conditions: QPatch whole-cell patch clamp, room temperature
Sequence of hERG potassium channel (Q12809 whole entry): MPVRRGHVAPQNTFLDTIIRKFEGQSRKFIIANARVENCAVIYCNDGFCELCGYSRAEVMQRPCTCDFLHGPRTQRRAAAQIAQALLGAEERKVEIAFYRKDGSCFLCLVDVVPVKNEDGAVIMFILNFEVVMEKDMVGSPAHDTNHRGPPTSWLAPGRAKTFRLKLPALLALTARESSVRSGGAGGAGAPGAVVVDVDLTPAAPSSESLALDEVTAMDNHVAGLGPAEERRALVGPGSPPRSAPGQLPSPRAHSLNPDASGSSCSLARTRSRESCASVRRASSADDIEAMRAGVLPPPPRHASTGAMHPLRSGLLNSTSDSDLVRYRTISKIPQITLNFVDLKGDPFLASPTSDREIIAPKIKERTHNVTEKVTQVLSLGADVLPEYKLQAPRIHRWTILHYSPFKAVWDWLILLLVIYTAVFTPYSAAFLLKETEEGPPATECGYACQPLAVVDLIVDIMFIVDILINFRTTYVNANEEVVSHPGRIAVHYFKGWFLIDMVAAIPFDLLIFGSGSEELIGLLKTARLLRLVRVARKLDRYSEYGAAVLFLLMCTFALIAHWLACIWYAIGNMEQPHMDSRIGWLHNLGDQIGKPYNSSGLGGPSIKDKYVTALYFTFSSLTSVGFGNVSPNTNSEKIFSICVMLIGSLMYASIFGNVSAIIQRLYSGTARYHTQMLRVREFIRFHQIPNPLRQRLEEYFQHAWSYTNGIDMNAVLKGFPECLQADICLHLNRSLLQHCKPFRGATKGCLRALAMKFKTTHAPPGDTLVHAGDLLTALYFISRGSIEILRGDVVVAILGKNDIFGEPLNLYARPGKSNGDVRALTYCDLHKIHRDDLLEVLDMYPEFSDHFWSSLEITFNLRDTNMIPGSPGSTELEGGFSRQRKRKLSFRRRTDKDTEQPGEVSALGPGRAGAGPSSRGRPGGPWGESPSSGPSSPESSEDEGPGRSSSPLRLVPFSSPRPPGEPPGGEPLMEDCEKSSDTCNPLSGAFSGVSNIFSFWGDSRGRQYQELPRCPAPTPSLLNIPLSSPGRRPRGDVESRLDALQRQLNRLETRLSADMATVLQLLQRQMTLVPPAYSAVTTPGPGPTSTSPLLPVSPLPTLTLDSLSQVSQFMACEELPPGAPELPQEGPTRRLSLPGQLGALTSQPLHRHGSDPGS
Procedure: To assay the effect of the compound disclosed herein on hERG potassium channel by using automatic patch-clamp method.
The cells stably expressing the hERG potassium channel used in the experiment were CHO-hERE from Aviva Biosciences. CHO-hERG was cultured at 37° C. in 5% CO2.
The CHO-hERG cells used in the experiment were cultured for at least two days, and the cell density reached 75% or more. Before the experiment, the cells were digested with TrypLE, and then the collected cells were resuspended in extracellular fluid.
The extracellular fluid needed to be prepared once a month. The intracellular fluid must be frozen in aliquots at −20° C.
The test compound and its positive control amitriptyline were dissolved in DMSO to obtain a stock solution at a certain concentration. […]
With a holding potential of −80 mv, a voltage stimulation of −50 my was applied for 80 ms to record the cell leakage current value; then hERG channel was opened by a depolarization to +20 my for 4800 ms and hERG tail current was elicited by a repolarization to −50 my for 5000 ms and recorded; and finally, the voltage was restored to the holding potential of −80 my and maintained for 3100 ms. […]
In each complete current recording, the inhibition percentage of each compound at the action concentration could be calculated based on the percentage of peak current in the negative control. […]

[4] = 30 mg/kg intragastrically twice a day
[5] = 10 mg/kg intragastrically twice a day

SMILES	HBV-DNA reduction Liver (day 7) [1, 4]	HBV-DNA reduction Plasma (day 5) [1, 4]	half-life at 1 μM [2] [h]	CLint scaled at 1 μM [2] [mL/min/kg]	microsomal CLint at 1 μM [2] [µL/min/mg]	IC50 [3] [µM]	HBV-DNA reduction Liver (day 7) [1, 5]	HBV-DNA reduction Plasma (day 5) [1, 5]
C[C@]1(NC(=O)C(=O)c2c(Cl)c(C(=O)Nc3ccc(F)c(F)c3)c3n2CCC3)CC[C@H](CC(=O)O)CC1 [Compound 18]	1.99 Δ Log10 copies/100 ng	2.84 Δ Log10 copies/μL	> 2.42	< 8.6	< 9.6	> 40		
C[C@]1(NC(=O)C(=O)c2c(Cl)c(C(=O)Nc3cc(F)c(F)c(F)c3)c3n2CCC3)CC[C@H](CC(=O)O)CC1 [Compound 25]	2.36 Δ Log10 copies/100 ng	3.57 Δ Log10 copies/μL	> 2.42	< 8.6	< 9.6	> 40	0.94 Δ Log10 copies/100 ng	2.0 Δ Log10 copies/μL
